The results in this text go back to US12662489B2 (Sitryx Therapeutics Limited, priority 2023, dated 2026).

Each structure is given as a SMILES string.

The target in experiment [1] is T1, MTHFD1 recombinant human enzyme (Homo sapiens, UniProt P11586).
T1 sequence (P11586 2-291 limits assumed): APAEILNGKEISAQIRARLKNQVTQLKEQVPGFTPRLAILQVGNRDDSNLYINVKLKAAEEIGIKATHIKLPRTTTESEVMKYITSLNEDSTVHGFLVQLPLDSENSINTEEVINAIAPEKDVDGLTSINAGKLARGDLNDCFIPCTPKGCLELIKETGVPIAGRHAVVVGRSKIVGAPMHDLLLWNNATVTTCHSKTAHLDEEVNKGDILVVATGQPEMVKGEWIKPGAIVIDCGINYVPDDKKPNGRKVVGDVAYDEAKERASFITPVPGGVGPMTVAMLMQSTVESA
Nature of the experiment: MTHFD1 inhibition assay (NAD(P)H-Glo luminescence). The note with it: MTHFD1 IC50, recombinant human enzyme 200 nM, NADP, band.

For experiment [2], the target named is T2, MTHFD2 recombinant human enzyme (Homo sapiens, UniProt P13995).
T2 sequence (P13995 36-350): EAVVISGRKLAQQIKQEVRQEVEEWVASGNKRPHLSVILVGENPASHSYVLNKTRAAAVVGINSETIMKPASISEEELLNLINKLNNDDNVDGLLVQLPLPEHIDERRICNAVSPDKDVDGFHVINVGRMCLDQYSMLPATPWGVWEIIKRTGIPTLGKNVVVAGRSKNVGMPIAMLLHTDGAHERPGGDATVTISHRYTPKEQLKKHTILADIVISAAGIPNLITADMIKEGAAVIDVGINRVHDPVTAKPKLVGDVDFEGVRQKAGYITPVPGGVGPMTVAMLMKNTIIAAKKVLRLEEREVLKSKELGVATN
Nature of the experiment: MTHFD2 inhibition assay (NAD(P)H-Glo luminescence).

Where [3] appears, read: selectivity of MTHFD2 inhibition over MTHFD1, band.

On to `COC[C@H]1CN(c2cc(C)c3c4c(c(=O)oc3c2C)CN(C(=O)c2ccc(C(=O)NS(=O)(=O)C3(C)CC3)c(N3CCC[C@H]3C)c2)CC4)CCN1C` [Example 123, 4-(8-((R)-3-(methoxymethyl)-4-methylpiperazin-1-yl)-7,10-dimethyl-5-oxo-1,3,4,5-tetrahydro-2H-chromeno[3,4-c]pyridine-3-carbonyl)-N-((1-methylcyclopropyl)sulfonyl)-2-((R)-2-methylpyrrolidin-1-yl)benzamide], for which the IC50 (usually the concentration at which inhibition is half-maximal) in experiment [1] was in the range of 100 to 1000 nM; in experiment [2], 10 to 100 nM. The “MTHFD1/MTHFD2 IC50 ratio” value in experiment [2] (setting [3]) was “F (<3)”.
For `COC[C@H]1CN(c2cc(Cl)c3c4c(c(=O)oc3c2C)CN(C(=O)c2cc(N(C)C)c(C(=O)NS(=O)(=O)N3CCC[C@@H]3C(F)(F)F)cc2F)CC4)CCN1C` [Example 278, 4-(10-chloro-8-((R)-3-(methoxymethyl)-4-methylpiperazin-1-yl)-7-methyl-5-oxo-1,3,4,5-tetrahydro-2H-chromeno[3,4-c]pyridine-3-carbonyl)-2-(dimethylamino)-5-fluoro-N-(((R)-2-(trifluoromethyl)pyrrolidin-1-yl)sulfonyl)benzamide] the same measures were 100 to 1000 nM, 10 to 100 nM and “H (>9.0 to 30)”.
Consider `COC[C@H]1CN(c2cc(C)c3c4c(c(=O)oc3c2)CN(C(=O)c2ccc(C(=O)NS(=O)(=O)N3CCCC3)c(OC3CCC3)c2F)CC4)CCN1C` [Example 186, (R)-2-cyclobutoxy-3-fluoro-4-(8-(3-(methoxymethyl)-4-methylpiperazin-1-yl)-10-methyl-5-oxo-1,3,4,5-tetrahydro-2H-chromeno[3,4-c]pyridine-3-carbonyl)-N-(pyrrolidin-1-ylsulfonyl)benzamide], for which the IC50 in experiment [1] and in experiment [2] was 100 to 1000 nM in each case. In addition, the “MTHFD1/MTHFD2 IC50 ratio” value in experiment [2] (setting [3]) is listed as “F (<3)”.
Regarding `CCOc1c(C(=O)NS(=O)(=O)N2CCCCC2)ccc(C(=O)N2CCc3c(c(=O)oc4c(C)c(N5CCN(C)[C@@H](COC)C5)ccc34)C2)c1F` [Example 198, (R)-2-ethoxy-3-fluoro-4-(8-(3-(methoxymethyl)-4-methylpiperazin-1-yl)-7-methyl-5-oxo-1,3,4,5-tetrahydro-2H-chromeno[3,4-c]pyridine-3-carbonyl)-N-(piperidin-1-ylsulfonyl)benzamide], the half-inhibitory concentration (IC50) in experiment [1] and in experiment [2] was 100 to 1000 nM in each case. In experiment [2] (setting [3]), the “MTHFD1/MTHFD2 IC50 ratio” value is recorded as “F (<3)”.
Regarding `COC[C@H]1CN(c2cc(C)c3c4c(c(=O)oc3c2C)CN(C(=O)c2cc(OC3CCC3)c(C(=O)NS(=O)(=O)N(C)C)cc2F)CC4)CCN1C` [Example 93, (R)-2-cyclobutoxy-N-(N,N-dimethylsulfamoyl)-5-fluoro-4-(8-(3-(methoxymethyl)-4-methylpiperazin-1-yl)-7,10-dimethyl-5-oxo-1,3,4,5-tetrahydro-2H-chromeno[3,4-c]pyridine-3-carbonyl)benzamide], the IC50 in experiment [1] and in experiment [2] was 10 to 100 nM each time. Besides, the “MTHFD1/MTHFD2 IC50 ratio” value in experiment [2] (setting [3]) is on record as “G (^ 3 to 9.0)”.
Consider `CCOc1cc(C(=O)N2CCc3c(c(=O)oc4c(C)c(N5CCN(C)[C@@H](COC)C5)cc(C)c34)C2)c(F)cc1C(=O)NS(=O)(=O)N1CC[C@@H](F)C1` [Example 261, 2-ethoxy-5-fluoro-N-(((R)-3-fluoropyrrolidin-1-yl)sulfonyl)-4-(8-((R)-3-(methoxymethyl)-4-methylpiperazin-1-yl)-7,10-dimethyl-5-oxo-1,3,4,5-tetrahydro-2H-chromeno[3,4-c]pyridine-3-carbonyl)benzamide], for which the IC50 in experiment [1] is 100 to 1000 nM; in experiment [2], 1 to 10 nM.
Regarding `COC[C@H]1CN(c2cc(C)c3c4c(c(=O)oc3c2C)CN(C(=O)c2ccc(C(=O)NS(=O)(=O)C3(C)CC3)c(N(C)C3CC3)c2)CC4)CCN1C` [Example 83, (R)-2-(cyclopropyl(methyl)amino)-4-(8-(3-(methoxymethyl)-4-methylpiperazin-1-yl)-7,10-dimethyl-5-oxo-1,3,4,5-tetrahydro-2H-chromeno[3,4-c]pyridine-3-carbonyl)-N-((1-methylcyclopropyl)sulfonyl)benzamide], the IC50 in experiment [1] was in the range of 10 to 100 nM; in experiment [2], 1 to 10 nM. The “MTHFD1/MTHFD2 IC50 ratio” value in experiment [2] (mean value after increased number of repeats, band) is recorded as “H* (>9.0 to 30)”; in experiment [2] (setting [3]) it was “G (^ 3 to 9.0)”.
Turning to `COC[C@H]1CN(c2ccc3c4c(c(=O)oc3c2)CN(C(=O)c2ccc(C(=O)NS(=O)(=O)N3CCCC3)c(OC3CCC3)c2F)CC4)CCN1C` [Example 182, (R)-2-cyclobutoxy-3-fluoro-4-(8-(3-(methoxymethyl)-4-methylpiperazin-1-yl)-5-oxo-1,3,4,5-tetrahydro-2H-chromeno[3,4-c]pyridine-3-carbonyl)-N-(pyrrolidin-1-ylsulfonyl)benzamide], the IC50 in experiment [1] was in the range of 1000 to 5000 nM; in experiment [2] it was 100 to 1000 nM. In addition, in experiment [2] (setting [3]), the “MTHFD1/MTHFD2 IC50 ratio” value is on record as “G (^ 3 to 9.0)”.
For `COC[C@H]1CN(c2cc(C)c3c4c(c(=O)oc3c2C)CN(C(=O)c2ccc(C(=O)NS(=O)(=O)N3CC5CC5C3)c(OC3CC3)c2F)CC4)CCN1C` (stereo partly drawn) [Example 207, N-((3-azabicyclo[3.1.0]hexan-3-yl)sulfonyl)-2-cyclopropoxy-3-fluoro-4-(8-((R)-3-(methoxymethyl)-4-methylpiperazin-1-yl)-7,10-dimethyl-5-oxo-1,3,4,5-tetrahydro-2H-chromeno[3,4-c]pyridine-3-carbonyl)benzamide], the IC50 in experiment [1] and in experiment [2] was 10 to 100 nM throughout. In addition, the “MTHFD1/MTHFD2 IC50 ratio” value in experiment [2] (setting [3]) is recorded as “F (<3)”.
Take `COC[C@H]1CN(c2ccc3c4c(c(=O)oc3c2C)CN(C(=O)c2c(C)cc(C(=O)NS(=O)(=O)N3CCCC3)c(OC3CCC3)c2F)CC4)CCN1C` [Example 140, (R)-2-cyclobutoxy-3-fluoro-4-(8-(3-(methoxymethyl)-4-methylpiperazin-1-yl)-7-methyl-5-oxo-1,3,4,5-tetrahydro-2H-chromeno[3,4-c]pyridine-3-carbonyl)-5-methyl-N-(pyrrolidin-1-ylsulfonyl) benzamide]: the IC50 in experiment [1] and in experiment [2] was 100 to 1000 nM throughout. For the same compound, the “MTHFD1/MTHFD2 IC50 ratio” value in experiment [2] (setting [3]) is given as “F (<3)”.
For the compound `CCOc1cc(C(=O)N2CCc3c(c(=O)oc4c(C)c(N5CCN(C)[C@@H](COC)C5)cc(C)c34)C2)cc(C(F)(F)F)c1C(=O)NS(=O)(=O)N1CCCC1` [Example 160, (R)-2-ethoxy-4-(8-(3-(methoxymethyl)-4-methylpiperazin-1-yl)-7,10-dimethyl-5-oxo-1,3,4,5-tetrahydro-2H-chromeno[3,4-c]pyridine-3-carbonyl)-N-(pyrrolidin-1-ylsulfonyl)-6-(trifluoromethyl)benzamide], the IC50 in experiment [1] was 1000 to 5000 nM; in experiment [2], 100 to 1000 nM. Moreover, the “MTHFD1/MTHFD2 IC50 ratio” value in experiment [2] (setting [3]) was “H (>9.0 to 30)”.
For `COC[C@H]1CN(c2cc(Cl)c3c4c(c(=O)oc3c2C)CN(C(=O)c2cc(N(C)C)c(C(=O)NS(=O)(=O)N3CCC(C(F)(F)F)CC3)cc2F)CC4)CCN1C` [Example 293, (R)-4-(10-chloro-8-(3-(methoxymethyl)-4-methylpiperazin-1-yl)-7-methyl-5-oxo-1,3,4,5-tetrahydro-2H-chromeno[3,4-c]pyridine-3-carbonyl)-2-(dimethylamino)-5-fluoro-N-((4-(trifluoromethyl)piperidin-1-yl)sulfonyl)benzamide] the same measures were 100 to 1000 nM, 10 to 100 nM and “J (>30)”.
